Common to all, as to type: in vivo
Assay [1] has as its system Zucker fatty rats. Briefly: Combination treatment of compound A and acarbose in diabetic rats (soluble starch loading). The note with it: fasted Zucker fatty rats; single oral dose compound A 1 mg/kg, acarbose 1 mg/kg, alone or combined; soluble starch 2 g/kg one minute later; up to 120 minutes; mean ± standard error. As to the method:
Six male Zucker fatty rats (11-week old) were fasted and orally administered with single doses of compound A (1 mg/kg) and an α-glucosidase inhibitor, acarbose (1 mg/kg), either alone or in combination. […] Wako Pure Chemical Industries, Ltd.)

The test system of assay [2] is KKAy mice. Briefly: Chronic combination treatment of compound A and glimepiride in diabetic mice. The note with it: non-fasting, compound A 0.03% mixed diet, glimepiride 0.5 mg/kg once daily, alone or combined, one hour after drug administration, mean ± standard error. As to the method:
Seven or eight female KKAy mice/group (4-week old; CLEA JAPAN, Inc.) were orally administered with repeated doses of compound A (0.03% mixed diet; ad libitum) and an insulin secretagogue, glimepiride (0.5 mg/kg, once daily; SIGMA-ALDRICH JAPAN K.K.), either alone or in combination, for 8 weeks. […] Plasma glucose levels were measured by the GDH electrode method with a self-testing glucose measuring instrument (Glutest Neo Super; […]

Assay [3] has as its system Zucker fatty rats. Briefly: Combination treatment of compound A and vildagliptin in diabetic rats (oral glucose loading). The note with it: fasted Zucker fatty rats; single oral dose compound A 1 mg/kg, vildagliptin 3 mg/kg, alone or combined; glucose 2 g/kg one hour later; up to 120 minutes; mean ± standard error. As for the experimental part:
One hour after the administration, the rats were orally administered with glucose solutions (2 g/kg); blood was taken from the tail vein of each rat at specified time intervals and centrifuged to collect plasma. Plasma glucose levels were measured by mutarotase-GOD method with a glucose assay kit (Glucose C2 Test Wako; Wako Pure Chemical Industries, Ltd.)

Assay [4] deals with rats with STZ-induced diabetes mellitus. Briefly: Combination treatment of compound A and insulin in diabetic rats. The note with it: STZ diabetic SD rats, non-fasting; single oral dose compound A 1 mg/kg, subcutaneous slow-release insulin implant (one pellet), alone or combined; up to 8 hours; mean ± standard error. The text has this:
SD rats (7-week old; CHARLES RIVER LABORATORIES JAPAN, INC.) were intraperitoneally administered with streptozocin (SIGMA-ALDRICH JAPAN K.K.; hereinafter abbreviated as STZ) to induce diabetes. The rats with STZ-induced diabetes mellitus (8-week old) underwent subcutaneous implant of a slow-release insulin (one pellet of […] Canada, Inc.) or sham operation. […] Blood was taken from the tail vein of each rat at specified time intervals and centrifuged to collect plasma. […] Wako Pure Chemical Industries, Ltd.)

The test system of the next assay is C57BL mice. Briefly: Combination treatment of compound A and glimepiride in normal mice. The note with it: normoglycemic C57BL mice, non-fasting; single oral dose compound A 10 mg/kg, glimepiride 0.5 mg/kg, alone or combined; up to 3 hours; mean ± standard error. As to the method:
(§1) CLEA Japan, Inc.) and 10 female C57BL mice/group (normal mice; 4-week old; CLEA Japan, Inc.) were orally administered with single doses of compound A (10 mg/kg) and an insulin secretagogue, glimepiride (0.5 mg/kg; SIGMA-ALDRICH JAPAN K.K.), either alone or in combination. Blood was taken from the tail vein of each mouse at specified time intervals and plasma glucose levels were measured by the GDH electrode method with a self-testing glucose measuring instrument (Glutest Neo Super; […] CO., LTD.)

Assay [5] has as its system high-fat diet loaded mice with STZ-induced diabetes mellitus. Briefly: Combination treatment of compound A and glipizide in diabetic mice. The note with it: high-fat diet STZ diabetic ICR mice, non-fasting; single oral dose compound A 1 mg/kg, glipizide 10 mg/kg, alone or combined; up to 8 hours; mean ± standard error. As to the method:
After 3 weeks a high-fat diet (D12492 of Research Diets, Inc.) feeding, ICR mice (CHARLES RIVER LABORATORIES JAPAN, INC.) were intraperitoneally administered streptozocin (SIGMA-ALDRICH JAPAN K.K.; hereinafter abbreviated as STZ) to induce diabetes. […] SIGMA-ALDRICH JAPAN K.K.), either alone or in combination. Blood was taken from the tail vein of each mouse at specified time intervals and plasma glucose levels were measured by GOD colorimetry with a self-testing glucose measuring instrument (Medisafe Mini GR-102; TERUMO CORPORATION, Japan).

Assay [6] deals with KKAy mice. Briefly: Combination treatment of compound A and glimepiride in diabetic mice. The note with it: non-fasting, single oral dose compound A 10 mg/kg, glimepiride 0.5 mg/kg, alone or combined, up to 3 hours, mean ± standard error. As to the method:
as §1

The subject of assay [7] is db/db mice. Briefly: Chronic combination treatment of compound A and metformin hydrochloride in diabetic mice. The note with it: mean ± standard error; for Change in GHb (%) / Change in plasma IRI level: 27 days; for Fasting plasma glucose level: after 27 days, fasted 16 hours; for Change in plasma IRI level: non-fasting.
Assay [8] relates to Zucker fatty rats. Briefly: Combination treatment of compound A and voglibose in diabetic rats (soluble starch loading). The note with it: fasted Zucker fatty rats; single oral dose compound A 1 mg/kg, voglibose 0.1 mg/kg, alone or combined; soluble starch 2 g/kg one minute later; up to 120 minutes; mean ± standard error. As for the experimental part:
Six male Zucker fatty rats (10-week old) were fasted and orally administered with single doses of compound A (1 mg/kg) and an α-glucosidase inhibitor, voglibose (0.1 mg/kg), either alone or in combination. […] Wako Pure Chemical Industries, Ltd.)

Assay [9] deals with Zucker fatty rats. Briefly: Combination treatment of compound A and sitagliptin in diabetic rats (oral glucose loading). The note with it: fasted Zucker fatty rats; single oral dose compound A 1 mg/kg, sitagliptin 0.3 mg/kg, alone or combined; glucose 2 g/kg one hour later; up to 120 minutes; mean ± standard error. As for the experimental part:
Eight male Zucker fatty rats/group (10-week old) were fasted and orally administered with single doses of compound A (1 mg/kg) and a DPP-IV inhibitor, sitagliptin (0.3 mg/kg), either alone or in combination. […] Wako Pure Chemical Industries, Ltd.)

In assay [10] the test system is db/db mice. Briefly: Chronic combination treatment of compound A and pioglitazone in diabetic mice. The note with it: compound A 3 mg/kg, pioglitazone 10 mg/kg, once daily oral, alone or combined, 27 days, mean ± standard error; for Change in GHb (%): after minus before; for Change in plasma IRI level: non-fasting.
Assay [11] has as its system high-fat diet loaded mice with STZ-induced diabetes mellitus. Briefly: Combination treatment of compound A and glibenclamide in diabetic mice. The note with it: high-fat diet STZ diabetic ICR mice, non-fasting; single oral dose compound A 1 mg/kg, glibenclamide 10 mg/kg, alone or combined; up to 8 hours; mean ± standard error. From the text:
After 3 weeks a high-fat diet (D12492 of Research Diets, Inc.) feeding, ICR mice (CHARLES RIVER LABORATORIES JAPAN, INC.) were intraperitoneally administered with streptozocin (SIGMA-ALDRICH JAPAN K.K.; hereinafter abbreviated as STZ) to induce diabetes. […] SIGMA-ALDRICH JAPAN K.K.), either alone or in combination. Blood was taken from the tail vein of each mouse at specified time intervals and centrifuged to collect plasma. […] Wako Pure Chemical Industries, Ltd.)

Assay [12] has as its system Zucker fatty rats. Briefly: Combination treatment of compound A and miglitol in diabetic rats (soluble starch loading). The note with it: fasted Zucker fatty rats; single oral dose compound A 0.5 mg/kg, miglitol 3 mg/kg, alone or combined; soluble starch 2 g/kg one minute later; up to 120 minutes; mean ± standard error. As to the method: Six male Zucker fatty rats (9-week old) were fasted and orally administered with single doses of compound A (0.5 mg/kg) and an α-glucosidase inhibitor, miglitol (3 mg/kg), either alone or in combination. One minute after the administration, the rats were orally administered with soluble starch solutions (2 g/kg); blood was taken from the tail vein of each rat at specified time intervals and centrifuged to collect plasma. Plasma glucose levels were measured by mutarotase-GOD method with a glucose assay kit (Glucose C2 Test Wako; Wako Pure Chemical Industries, Ltd.)

Where [13] appears, read: metformin hydrochloride 100 mg/kg, alone or with compound A 3 mg/kg.
Where [14] appears, read: metformin hydrochloride 300 mg/kg, alone or with compound A 3 mg/kg.

Each structure is given as a SMILES string. Where a name gives a salt, the structure may show the parent alone.

Regarding `C[C@H]1O[C@H](O[C@H]2[C@H](O)[C@@H](O)[C@@H](O[C@H]3[C@H](O)[C@@H](O)C(O)O[C@@H]3CO)O[C@@H]2CO)[C@H](O)[C@@H](O)[C@@H]1N[C@H]1C=C(CO)[C@@H](O)[C@H](O)[C@H]1O` (stereo partly drawn) [Acarbose, acarbose], in the assay on Zucker fatty rats [1], the “Δ plasma glucose AUC” value worked out at 10192.8 ± 913.6 mg·min/dL.

Take `CCOc1ccc(Cc2cc([C@@H]3S[C@H](CO)[C@@H](O)[C@H](O)[C@H]3O)c(OC)cc2C)cc1` [Compound A, (1S)-1,5-anhydro-1-[5-(4-ethoxybenzyl)-2-methoxy-4-methylphenyl]-1-thio-D-glucitol]: in the assay on KKAy mice [2], the “Plasma glucose level at 4 wk of administration” value amounted to 154.8 ± 5.9 mg/dL. Besides, the “Plasma glucose level at 8 wk of administration” value in the assay on KKAy mice [2] came to 168.6 ± 2.2 mg/dL. Besides, the “Δ plasma glucose AUC” value with Zucker fatty rats [1] is 9861.6 ± 1076.0 mg·min/dL; with Zucker fatty rats [3], 11690.1 ± 807.9 mg·min/dL; in the assay with C57BL mice it was -4.2 ± 8.5 mg·h/dL; in assay [5] it was -310.3 ± 157.2 mg·h/dL; in the assay with KKAy mice [6], -83.0 ± 14.6 mg·h/dL; in the assay with Zucker fatty rats [8] it was 10940.4 ± 952.7 mg·min/dL. The “Δ plasma glucose AUC” value in the assay with Zucker fatty rats [9] was 11239.9 ± 617.8 mg·min/dL; in assay [11] it was -130.1 ± 164.9 mg·h/dL; with Zucker fatty rats [12], 11655.9 ± 1021.8 mg·min/dL. Also, in [4], the “Plasma glucose AUC” value was determined as 3983.4 ± 194.5 mg·h/dL. Also, the “Change in GHb (%)” value with db/db mice [7] (compound A 3 mg/kg once daily oral, alone, GHb after minus before) was determined as 0.14 ± 0.39%; in the assay on db/db mice [10], 3.15 ± 0.16%. The “Fasting plasma glucose level” value in the assay with db/db mice [7] (compound A 3 mg/kg once daily oral, alone) amounted to 275.0 ± 28.7 mg/dL. For the same compound, the “Change in plasma IRI level” value was -5.01 ± 2.11 ng/mL in the assay with db/db mice [7] (compound A 3 mg/kg once daily oral, alone, after minus before) and -27.81 ± 4.41 ng/dL in the assay on db/db mice [10]. In the assay with db/db mice [10], the “Non-fasting plasma glucose level” value worked out at 607.9 ± 21.6 mg/dL.

With `COc1ccc(Cl)cc1C(=O)NCCc1ccc(S(=O)(=O)NC(=O)NC2CCCCC2)cc1` [Glibenclamide, glibenclamide], in assay [11], the “Δ plasma glucose AUC” value turned out to be 140.3 ± 107.2 mg·h/dL.

For `CCC1=C(C)CN(C(=O)NCCc2ccc(S(=O)(=O)NC(=O)N[C@H]3CC[C@H](C)CC3)cc2)C1=O` [Glimepiride, glimepiride], in the assay on KKAy mice [2], the “Plasma glucose level at 4 wk of administration” value is 137.6 ± 13.3 mg/dL and the “Plasma glucose level at 8 wk of administration” value is recorded as 160.4 ± 8.2 mg/dL. Moreover, in the assay with C57BL mice, the “Δ plasma glucose AUC” value was -104.0 ± 9.3 mg·h/dL. Also, in the assay on KKAy mice [6], the “Δ plasma glucose AUC” value was -118.6 ± 20.2 mg·h/dL.

With `CN(C)C(=N)N=C(N)N` [Metformin hydrochloride, metformin hydrochloride], the results for the “Fasting plasma glucose level” value in the assay with db/db mice [7] (setting [13]) and in the assay on db/db mice [7] (setting [14]) were 378.3 ± 33.4 mg/dL and 254.0 ± 24.7 mg/dL, respectively. Besides, the “Change in GHb (%)” value in the assay on db/db mice [7] (metformin hydrochloride 100 mg/kg, alone or with compound A 3 mg/kg, oral) turned out to be 2.08 ± 0.33%; in the assay with db/db mice [7] (metformin hydrochloride 300 mg/kg, alone or with compound A 3 mg/kg, oral) it was 1.70 ± 0.23%. The “Change in plasma IRI level” value was -9.81 ± 0.91 ng/mL in the assay with db/db mice [7] (setting [13]) and -7.36 ± 1.29 ng/mL in the assay with db/db mice [7] (setting [14]).

For the compound `OCCN1C[C@H](O)[C@@H](O)[C@H](O)[C@H]1CO` [Miglitol, miglitol], in the assay on Zucker fatty rats [12], the “Δ plasma glucose AUC” value amounted to 8909.4 ± 1390.0 mg·min/dL.

Take `CCc1ccc(CCOc2ccc(CC3SC(=O)NC3=O)cc2)nc1` (stereo not drawn) [Pioglitazone, pioglitazone]: in the assay with db/db mice [10], the “Change in GHb (%)” value is recorded as 3.04 ± 0.36%, the “Non-fasting plasma glucose level” value turned out to be 555.2 ± 56.9 mg/dL and the “Change in plasma IRI level” value was -43.29 ± 3.83 ng/dL.

Regarding `N[C@@H](CC(=O)N1CCn2c(nnc2C(F)(F)F)C1)Cc1cc(F)c(F)cc1F` [Sitagliptin, sitagliptin], the “Δ plasma glucose AUC” value with Zucker fatty rats [9] was 13881.4 ± 1292.9 mg·min/dL.

Consider `OCC(CO)N[C@H]1C[C@](O)(CO)[C@@H](O)[C@H](O)[C@H]1O` [Voglibose, voglibose], for which the “Δ plasma glucose AUC” value in the assay with Zucker fatty rats [8] was 12395.5 ± 543.0 mg·min/dL.

The values are drawn from US20120040898A1, “PHARMACEUTICAL COMPOSITIONS” (TAISHO PHARMACEUTICAL CO., LTD, priority 2009, published 2012).
